± gives the expanded uncertainty stated by the source.
Details: Liquid

CO [methanol]
vapor or sublimation pressure (337.85 K): 101 ± 0.86 kPa

CN(C)C=O [dimethylformamide]
vapor or sublimation pressure (425.15 K): 101 ± 0.86 kPa

CC(C)(C)N [2-methyl-2-propanamine]
vapor or sublimation pressure (317.55 K): 101 ± 0.86 kPa

From the NIST ThermoML archive (doi:10.1021/je201349k)
